{
  "source": "patent US5639881A",
  "about": "“Synthesis and elucidation of pyrimido (4,5-Q) quinazoline derivatives” (priority 1991, dated 1997)",
  "key": {"[1]": {"type": "physicochemical", "from_the_text": "The hydrolysis of 28 was followed spectrophotometrically at 430 nm in anaerobic aqueous buffer over a pH range of 6 to 12 with [28]=5×10^-5 M. Absorbance vs. time plots for hydrolysis are first order in character, with the first-order rate constants (kobsd)independent of buffer concentration but dependent on pH as shown in FIG. 1. The use of known hydroquinone and quinone extinction coefficients at 430 nm permitted the calculation of product yields: 69±1% 38 and 31±1% 39 regardless of the pH (product structures shown in Scheme VI). The accuracy of the yield determinations was enhanced by the intense hydroquinone visible spectrum and the absence of visible absorbances for the quinone derivative. Product isolation studies confirmed the presence of 39.\n(§1) The mechanism of 38 and 39 formation from 28 is discussed in conjunction with Scheme VI. The pH-rate data in FIG. 1 indicate that rate-determining chloride elimination occurs from the neutral, monoanion, dianion, and trianion forms of 28. Plateaus corresponding to the first three eliminations are indicated on FIG. 1. The increasing rates above pH 11 may pertain to equilibrium trianion formation and rate-determining elimination of chloride from the trianion. Consideration of rate-determining chloride elimination from the various forms of 28 provides the rate law shown in equation 1 [formula] where the rate and equilibrium constants are those shown in Scheme VI. The numerical values for these constants (shown in Scheme VI) were obtained by computer-fitting the data in FIG. 1 to equation 1. The solid line in FIG. 1 was then generated from equation 1 substituted with these constants. The independently determined pKa for monoanion formation (8.26±0.15) is in agreement with the kinetic pKa value (8.3). Thus, the kinetically-determined pKa values in Scheme VI represent actual acid dissociations rather than mixtures of constants. [drawing 5]\nThe hydrolysis of 35 in anaerobic buffer proceeds by a first-order process to afford 42 as the sole product. […] The pH-rate profile, obtained over the pH range of 5 to 8, is a straight line of slope +1. […] Computer fitting the pH-rate data to kobsd =k1 Ka1 /aH, and substituting pKa1 =10.3, provides and elimination rate constant of k1 =24 sec^-1.\n(§2) Kinetic Studies of Hydrolysis and Oxidation. The hydrolytic studies of 28 and 35 were carried out in anaerobic aqueous buffer, and the reoxidation studies of 43 and 44 were carried out in aerobic aqueous buffer at 30.0°±0.2° C. The anaerobic experiments were carried out with Thunberg cuvettes as previously described. A dimethyl sulfoxide stock of the compound to be studied was prepared fresh, and 50 μL of this stock was added to 2.95 mL of buffer. The absorbance vs time data were obtained on a PERKIN-ELMER 559 or a Lambda-3 UV-vis spectrophotometer and fit to a first-order rate law."}, "[2]": {"conditions": "reduced capability to cycle between reduced and oxidized forms; cited from earlier work"}, "colon and breast cancers": {"tested_on": "colon and breast cancers", "conditions": "for IC50: Homo sapiens; for antitumor activity: colon and breast cancers"}, "physchem": {"test": "physchem", "type": "physicochemical", "from_the_text": "as §1\n(§3) In aerobic aqueous buffer, both 43 and 44 are converted to the corresponding quinones {Scheme IX) by first-order processes. […] The solid curve of Plot A was generated from the rate law, kobsd =k1 +k2 Ka1 /(aH +Ka1), where k1 is the rate of oxidation of the neutral species (1×10^-3 sec^-1), k2 is the rate of oxidation of the hydroquinone monoanion (0.046 sec^-1), pKa1 is the acid dissociation constant (7.78), and aH is the proton activity determined with a pH meter. The acid dissociation constant obtained from the pH-rate data is nearly the same as the value determined previously, 8.26±0.15.1"}, "[3]": {"type": "physicochemical", "description": "Oxygen Reactivity. In order to assess the capability of the title systems to generate reactive oxygen species by quinone/hydroquinone cycling, the rate laws were determined for oxygen oxidation of 43 and 44, Scheme IX. These respective hydroquinones are analogues of 28 and 35 without leaving groups present. As expected, the internal hydrogen bonds of 43 slow oxidation at high pH while the absence of hydrogen bonds in 44 result in stopped flow oxidations under these conditions. However, the crossing of the pH-rate profiles near neutrality (FIG. 3) results in similar rates of oxidation for both systems at physiological pH.\nas §3, §2", "remark": "listed apart in the source"}, "[4]": {"test": "quinone methide trapping with added 2-mercaptoethanol", "type": "physicochemical", "conditions": "10 to 100X excess of mercaptoethanol", "from_the_text": "Chloride elimination from the neutral and anionic forms of 28 affords an equilibrating mixture of protonated (36), neutral (37), and anionic (37^-) quinone methides. Proton trapping by 37^-, in competition with water trapping of 36 and 37, then affords a mixture of 38 and 39. Evidence of steady-state intermediates capable of trapping nucleophiles (36 and 37) was obtained by adding 10 to 100X excess of Z-mercaptoethanol over 28. […] The presence mercaptoethanol results in formation of a hydroquinone (nucleophile-trapped) product 40 and no quinone 39, however. Thus, quinone methide formation must occur in a rate determining step, followed by its relatively rapid trapping by the mercaptide nuceophile. The mercaptoethanol trapping studies of benzimidazole (See: Skibo, E. B., J. Org. Chem. 1986, 51, 522) and quinazoline (See: Lemus et al., op. cit.) based quinone methides likewise provided evidence of a steady-state species."}, "[5]": {"conditions": "value determined previously; cited from earlier work"}, "[6]": {"test": "lipophilicity (statement)"}, "[7]": {"conditions": "aerobic aqueous buffer, 30.0 °C"}, "[8]": {"conditions": "regardless of pH (pH 6 to 12), 5×10^-5 M, 430 nm"}, "[9]": {"conditions": "read-out: IC50 values as low as"}},
  "note": "Read-outs that look alike come from different tables or passages of the source.",
  "data": [
    {"smiles": "Cc1nc2c(O)c3c(=O)n(C)c(CCl)nc3c(O)c2c(=O)n1C", "note": "[compound 35, 2-(Chloromethyl)-5,10-dihydroxy-3,7,8-trimethylpyrimido[4,5-g]quinazoline-4,9(3H,8H)-dione]", "values": [
      {"measurement": "stability in protic solvent", "setting": "[1]; any protic solvent", "result": "rapidly eliminates HCl"},
      {"measurement": "k1, rate constant for elimination of chloride from the monoanion", "setting": "[1]; monoanion, anaerobic aqueous buffer, 30.0 °C", "result": 24, "unit": "s⁻¹"},
      {"measurement": "rates of hydrolysis", "setting": "[1]; much above pH 8", "result": "stopped-flow rates"}
    ]},
    {"smiles": "COc1cccc2c1C(=N)c1c(O)c3c(c(O)c1C2=O)C[C@@](O)(C(C)=O)C[C@@H]3O[C@H]1C[C@H](N)[C@H](O)[C@H](C)O1", "note": "[5-iminodaunorubicin]", "values": [
      {"measurement": "cardiotoxicity", "setting": "[2]", "result": "does reduce cardiotoxicity"}
    ]},
    {"smiles": "O=C1c2nc(CBr)[nH]c(=O)c2C(=O)c2nc(CBr)[nH]c(=O)c21", "note": "[compound 19, 2,7-Bis(bromomethyl)pyrimido[4,5-g]quinazoline-4,5,9,10(3H,8H)-tetrone]", "values": [
      {"measurement": "IC50", "setting": "colon and breast cancers", "result": "> 1000", "unit": "nM"},
      {"measurement": "antitumor activity", "setting": "colon and breast cancers", "result": "poor activity"},
      {"measurement": "pKa", "setting": "physchem; anion formation near neutrality, read-out: pKa (conversion to an anion)", "result": 6.5}
    ]},
    {"smiles": "Cc1nc2c(O)c3c(=O)n(C)c(C)nc3c(O)c2c(=O)n1C", "note": "[compound 44]", "values": [
      {"measurement": "stability toward oxygen relative to reduced anthracyclines", "setting": "[3]", "result": "more stable toward oxygen than reduced anthracyclines"},
      {"measurement": "rates of oxidation", "setting": "[3]; at or above pH 9", "result": "stopped flow rates"},
      {"measurement": "rate of oxidation of the hydroquinone monoanion", "setting": "[3]; [7]", "result": 5.8, "unit": "s⁻¹"},
      {"measurement": "rate of oxidation at physiological pH", "setting": "[3]", "result": "9×10^-3 sec^-1"}
    ]},
    {"smiles": "Cc1nc2c(O)c3c(=O)[nH]c(CCl)nc3c(O)c2c(=O)[nH]1", "note": "[compound 28, 2-(Chloromethyl)-5,10-dihydroxy-7-methylpryimido[4,5-g]quinazoline-4,9(3H,8H)-dione]", "values": [
      {"measurement": "yield of hydrolysis product 38", "setting": "[1]; [8]", "result": "69±1", "unit": "%"},
      {"measurement": "yield of hydrolysis product 39", "setting": "[1]; [8]", "result": "31±1", "unit": "%"},
      {"measurement": "observed rate constants in presence of 2-mercaptoethanol vs hydrolysis without it", "setting": "[4]", "result": "essentially the same"},
      {"measurement": "pKa", "setting": "physchem; aqueous buffer, from computer-fit of pH-rate profile of hydrolysis, read-out: kinetic pKa value", "result": 8.3}
    ]},
    {"smiles": "Cc1nc2c(O)c3c(=O)[nH]c(C)nc3c(O)c2c(=O)[nH]1", "note": "[compound 43]", "values": [
      {"measurement": "acid dissociation constant (pKa) determined previously", "setting": "[5]", "result": "8.26±0.15"},
      {"measurement": "pKa", "setting": "physchem; aerobic aqueous buffer, from pH-rate profile of oxidation, read-out: pKa1 (hydroquinone acid dissociation constant from pH-rate data)", "result": 7.78},
      {"measurement": "stability toward oxygen relative to reduced anthracyclines", "setting": "[3]", "result": "more stable toward oxygen than reduced anthracyclines"},
      {"measurement": "rate of oxidation of the hydroquinone monoanion", "setting": "[3]; [7]", "result": 0.046, "unit": "s⁻¹"},
      {"measurement": "fold slower oxidation of 43^- than 44^-", "setting": "[3]; monoanions", "result": 128, "unit": "fold"},
      {"measurement": "k1, rate of oxidation of the neutral species", "setting": "[3]; neutral hydroquinone, aerobic aqueous buffer, 30.0 °C", "result": 0.001, "unit": "s⁻¹"},
      {"measurement": "rate of oxidation at physiological pH", "setting": "[3]", "result": "1.7×10^-2 sec^-1"}
    ]},
    {"smiles": "COc1c2nc(CBr)n(C)c(=O)c2c(OC)c2nc(CBr)n(C)c(=O)c12", "note": "[compound 17, 2,7-Bis (bromomethyl)-5,10-dimethoxy-3,8-dimethylpyrimido[4,5-g]quinazoline-4,9(3H,8H)-dione]", "values": [
      {"measurement": "IC50", "setting": "colon and breast cancers; [9]", "result": "≥ 20", "unit": "nM"},
      {"measurement": "lipophilicity", "setting": "[6]", "result": "lipophilic"},
      {"measurement": "ionization at physiological pH", "setting": "physchem", "result": "will not ionize at physiological pH"}
    ]},
    {"smiles": "Cn1c(CCl)nc2c(c1=O)C(=O)c1nc(CCl)n(C)c(=O)c1C2=O", "note": "[compound 22, 2,7-Bis(chloromethyl)-3,8-dimethylpyrimido[4,5-g]quinazoline-4,5,9,10(3H8H)-tetrone]", "values": [
      {"measurement": "antitumor activity", "setting": "colon and breast cancers", "result": "inactive"}
    ]},
    {"smiles": "COc1c2nc(CCl)n(C)c(=O)c2c(OC)c2nc(CCl)n(C)c(=O)c12", "note": "[compound 16, 2,7-Bis(chloromethyl)-5,10-dimethoxy-3,8-dimethylpyrimido [4,5-g]quinazoline-4,9(3H,8H)-dione]", "values": [
      {"measurement": "IC50", "setting": "colon and breast cancers; [9]", "result": "≥ 20", "unit": "nM"},
      {"measurement": "ionization at physiological pH", "setting": "physchem", "result": "will not ionize at physiological pH"}
    ]}
  ]
}
